In US7943142B2, “Euglenoid derived alkaloid” (priority 2008, dated 2011):

Legend:
[1] = test system: Ht-29 (ATCC HTB-38) adenocarcinoma cell line; test: Toxicity against adenocarcinoma cell line Ht-29 (MTS or MTT assay); format: cell-based; conditions: summary statement; test of Example 3 / FIG. 3
Procedure: Specifically, cancer cells were grown to mid-exponential growth phase, aliquots were added to tissue culture plates with carrier (control) and varying euglenophycin toxin (25, 50, 100 mg/L final concentration), with and without 5-fluorouracil and maintained in dimethyl sulfoxide. Growth was monitored by colorimetric change associated with respiration using MTS or MTT assay).

[2] = test system: GH4C1 rat pituitary cells; test: Cytotoxicity against GH4C1 rat pituitary tissue culture cells; format: cell-based
[3] = test system: Scenedesmus dimorphus (green algae); test: Algal growth (chlorophyll a) under euglenophycin exposure; format: cell-based; conditions: 0.3, 3 and 30 mg/L; chlorophyll a read daily for four days; FIG. 2
Procedure: (§1) Clonal isolates of five representative cyanoprokaryote, diatom, and green algae were grown in BG11 media at 28 C on a 14:10 L:D cycle. At mid-exponential phase growth, […] aliquots of each culture was transferred to 96-well plates. Carrier solvent (control) and euglenophycin toxin was added to three of more replicate vials (at 0, 300 ppb, 3 ppm, and 30 ppm) and growth was monitored for […].
(§2) To evaluate the euglenophycin against the growth rate of selected algal taxa. Cultures of five algal species grown in batch culture were exposed to the euglenophycin. The culture include Microcystis aeruginosa (cyanobacteria), Planktothrix (cyanobacteria), Gomphonema parvum (diatom), Scenedesmus dimorphus (green algae), and Oocystis polymorpha (green algae). The cultures were grown using 14:10 hour L:D cycles, in BG11 culture media. When the alga reached exponential phase, the cells were dispensed into Falcon 96-well tissue culture plates and were dosed with euglenophycin at 0, 0.3, 3 and 30 mg/L concentrations. Solvent blanks (acetone) were included in the control test. Readings of chlorophyll a were made on a BMG Labtech FLUOstar Omega spectrometer daily for four days.

[4] = test system: Microcystis aeruginosa (cyanobacteria); test: as above; format: cell-based; conditions: 0.3, 3 and 30 mg/L; chlorophyll a read daily for four days; FIG. 2
Procedure: as §1, §2

[5] = test system: Planktothrix (cyanobacteria); test: as above; format: cell-based; conditions: 0.3, 3 and 30 mg/L; chlorophyll a read daily for four days; FIG. 2
Procedure: as §1, §2

[6] = test system: Oocystis polymorpha (green algae); test: as above; format: cell-based; conditions: 0.3, 3 and 30 mg/L; chlorophyll a read daily for four days; FIG. 2
Procedure: as §1, §2

[7] = test system: Gomphonema parvum (diatom); test: as above; format: cell-based; conditions: 0.3, 3 and 30 mg/L; chlorophyll a read daily for four days; FIG. 2
Procedure: as §1, §2

fish = test: Fish bioassay (ichthyotoxicity); format: in vivo; conditions: purified toxin
Procedure: The toxic solvent extracts were subjected to HPLC analytical fractionation. Bioassay guided fractionation was used in all phases of separation to track sample activity and cytotoxic and/or ichthyotoxic extracts were identified. HPLC purification was carried out using a WATERS HPLC system (WATERS 2767 Sample Manager, 1525 Binary Pump, 510 pump, WATERS 2996 PDA and a WATERS ZQ Single Quadrature Mass Detector outfitted with an active flow splitter, switching valve using MASS LYNX software (Waters Corporation, Milford, Mass.). The HPLC/MS method was a water/acetone gradient with 0.2% TFA in both solvents. Extract was loaded onto a Phenomenex (Phenomenex Corporation, Torrance, Calif.) C18 LUNA 3 μm particle size, 250×4.6 mm column. The flow scheme conditions were: 1 mL/min flow rate, 90:10 Water/acetone (hold for 2 minutes). This was followed by a linear gradient over 20 minutes to 100% acetone. The acetone was held for 3 minutes prior to original flow conditions. Column temperature was held at 35° C.
NMR and mass spectral analysis provided unambiguous identification of the novel toxin. […] The euglenoids in culture appear to form the toxin independently of growth phase.

Structure (SMILES): CCC/C=C\CC/C=C/C=C/C1CCCC(CCCCO)N1 (centres unmarked) [euglenophycin]
- activity against cancerous cell lines [1]: activity
- toxicity (cytotoxic activity) towards GH4C1 rat pituitary cells [2]: toxicity
- effect on culture (chlorophyll a) [3]: negatively affected
- effect on culture (chlorophyll a) [4]: negatively affected
- effect on culture (chlorophyll a) [5]: negatively affected
- effect on culture (chlorophyll a) [6]: negatively affected
- effect on culture (chlorophyll a) [7]: negatively affected
- fish mortality on re-exposure to the toxin (fish): fish mortalities
